# Reference: ChEMBL document CHEMBL5143655, “Synthesis and biological evaluation of 1,2,4-triazole derivatives as potential Nrf2 activators for the treatment of cerebral ischemic injury” (Eur J Med Chem, 2022)
# How the values were obtained:
# [1] = Cytotoxicity against human HaCaT cells assessed as reduction in cell viability by MTT assay; format: toxicity, cell-based
# [2] = Cytotoxicity against rat PC-12 cells assessed as reduction in cell viability by MTT assay; format: toxicity, cell-based
# [3] = system: PC-12; experiment: Neuroprotective activity against SNP induced rat PC-12 cells assessed as increase in cell viability at 10 uM preincubated for 2 hrs followed by SNP stimulation for 24 hrs by MTT assay relative to control; format: functional
# [4] = system: PC-12; experiment: Neuroprotective activity against SNP induced rat PC-12 cells assessed as increase in cell viability at 5 uM preincubated for 2 hrs followed by SNP stimulation for 24 hrs by MTT assay relative to control; format: functional
# [5] = system: PC-12; experiment: Neuroprotective activity against SNP induced rat PC-12 cells assessed as increase in cell viability at 1 uM preincubated for 2 hrs followed by SNP stimulation for 24 hrs by MTT assay relative to control; format: functional
# [6] = Plasma protein binding in human plasma at 10 uM incubated for 6 hrs by LC-MS/MS based equilibrium dialysis method; format: ADME, cell-free; settings: read-out: PPB (converted)
# [7] = Plasma protein binding in Sprague-Dawley rat plasma at 10 uM incubated for 6 hrs by LC-MS/MS based equilibrium dialysis method; format: ADME, cell-free; settings: read-out: PPB (converted)
# [8] = Metabolic stability in human plasma assessed as parent compound remaining at 200 uM measured after 15 min by LC-MS/MS analysis relative to control; format: ADME, cell-free; settings: read-out: Stability
# [9] = Metabolic stability in human plasma assessed as parent compound remaining at 200 uM measured after 60 min by LC-MS/MS analysis relative to control; format: ADME, cell-free; settings: read-out: Stability
# [10] = Metabolic stability in human plasma assessed as parent compound remaining at 200 uM measured after 90 min by LC-MS/MS analysis relative to control; format: ADME, cell-free; settings: read-out: Stability
# [11] = Metabolic stability in human plasma assessed as parent compound remaining at 200 uM measured after 120 min by LC-MS/MS analysis relative to control; format: ADME, cell-free; settings: read-out: Stability
# [12] = Metabolic stability in human plasma assessed as half life at 200 uM by LC-MS/MS analysis relative to control; format: ADME, cell-free
# [13] = system: Rattus norvegicus; experiment: Neuroprotective activity in Sprague-Dawley rat model of middle cerebral artery occlusion-induced ischemia-reperfusion injury assessed as decrease in cerebral infarct volume at 5 mg/kg, ip preincubated for 1 hrs followed by MCAO operation and further incubated with compound for 4 hrs after reperfusion by TTC staining based assay; format: functional; set-up: scale not given: the % may be the effect or the level left; settings: time 5 hrs
SMILES,IC50 [1] [µM],IC50 [2] [µM],Activity [3] [%],Activity [4] [%],Activity [5] [%],also measured
Oc1cc(C(F)(F)F)ccc1-c1nc(-c2ccccc2O)n(-c2ccc(Br)cc2)n1,29.6,66.8,100.49,89.76,69.35,–
Oc1ccccc1-c1nc(-c2ccc(C(F)(F)F)cc2)no1,–,–,84.7,81.39,75.88,–
CC(C)c1ccc(-n2nc(-c3ccc(C(F)(F)F)cc3O)nc2-c2ccccc2O)cc1,51.4,144,108,100.41,69.66,–
CC(=O)N1CCN(c2ccc(OCC3COC(Cn4ccnc4)(c4ccc(Cl)cc4Cl)O3)cc2)CC1 (configuration not stated) [KETOCONAZOLE],–,–,–,–,–,"fraction unbound at 6 h, 10 µM [6]: 0.0128; fraction unbound at 6 h, 10 µM [7]: 0.0032"
Oc1cc(C(F)(F)F)ccc1-c1nc(-c2ccccc2O)n(-c2ccc(Cl)cc2)n1,–,–,96.09,87.25,67.99,–
CC(C)[N+](C)(CCOC(=O)C1c2ccccc2Oc2ccccc21)C(C)C [PROPANTHELINE],–,–,–,–,–,"remaining at 0.25 h, 200 µM [8]: 63.4%; remaining at 1 h, 200 µM [9]: 34.5%; remaining at 1.5 h, 200 µM [10]: 17.3%; remaining at 2 h, 200 µM [11]: 2.41%; half-life at 200 µM [12]: 23.5 min"
CC1=NN(c2ccccc2)C(=O)C1 [EDARAVONE],–,–,80.25,70.3,58.41,Activity [13]: 12.77%
CCc1ccc(-n2nc(-c3ccc(C(F)(F)F)cc3O)nc2-c2ccccc2O)cc1,57,147,106.61,95.36,64.43,–
Oc1cc(C(F)(F)F)ccc1-c1nc(-c2ccccc2O)n(-c2cc(F)cc(F)c2)n1,45.4,53.7,106.29,100.23,75.47,–
Oc1cc(C(F)(F)F)ccc1-c1nc(-c2ccccc2O)n(-c2ccccc2Cl)n1,–,–,102.19,90.63,70.08,–
Oc1cc(C(F)(F)F)ccc1-c1nc(-c2ccccc2O)n(-c2ccccc2C(F)(F)F)n1,–,–,92.2,80.01,70.97,–
Oc1cc(C(F)(F)F)ccc1-c1nc(-c2ccccc2O)n(-c2ccc(I)cc2)n1,32.1,73.3,104.51,94.41,70.13,–
Oc1cc(C(F)(F)F)ccc1-c1nc(-c2ccccc2O)n(-c2cc(C(F)(F)F)cc(C(F)(F)F)c2)n1,–,–,86.16,75.68,68.89,–
Oc1cc(C(F)(F)F)ccc1-c1nc(-c2ccccc2O)n(-c2ccccc2F)n1,–,–,100.18,86.63,63.42,–
Oc1cc(C(F)(F)F)ccc1-c1nc(-c2ccccc2O)n(-c2cccc(C(F)(F)F)c2)n1,54.3,49.7,99.9,92.2,71.47,–
N#Cc1ccc(-n2nc(-c3ccc(C(F)(F)F)cc3O)nc2-c2ccccc2O)cc1,–,–,98.91,86.8,66.6,–
CC(C)(C)c1ccc(-n2nc(-c3ccc(C(F)(F)F)cc3O)nc2-c2ccccc2O)cc1,–,–,81.14,77.77,67.29,–
Oc1cc(C(F)(F)F)ccc1-c1nc(-c2ccccc2O)n(-c2ccc(F)cc2F)n1,–,–,97.86,83.53,65.92,–
COc1cccc(-n2nc(-c3ccc(C(F)(F)F)cc3O)nc2-c2ccccc2O)c1,81.1,56.4,105.81,96.76,68.27,–
Oc1cc(C(F)(F)F)ccc1-c1nc(-c2ccccc2O)n(-c2ccc(OC(F)(F)F)cc2)n1,–,–,92.54,84.94,65.49,–
COc1ccc(-n2nc(-c3ccc(C(F)(F)F)cc3O)nc2-c2ccccc2O)cc1,–,–,98.85,86.56,69.04,–
COc1ccccc1-n1nc(-c2ccc(C(F)(F)F)cc2O)nc1-c1ccccc1O,–,–,96.2,85.59,70.74,–
Cc1ccc(-n2nc(-c3ccc(C(F)(F)F)cc3O)nc2-c2ccccc2O)cc1,81.8,113,102.45,94.12,71.49,–
Oc1cc(C(F)(F)F)ccc1-c1nc(-c2ccccc2O)n(-c2ccc(C(F)(F)F)cc2)n1,–,–,101.67,90.51,70.66,–
Oc1cc(C(F)(F)F)ccc1-c1nc(-c2ccccc2O)n(-c2cccc(Cl)c2)n1,–,–,100.29,92.73,72.33,–
Oc1cc(C(F)(F)F)ccc1-c1nc(-c2ccccc2O)n(-c2ccc(F)cc2)n1,–,–,99.83,86.71,67.16,–
Oc1cc(C(F)(F)F)ccc1-c1nc(-c2ccccc2O)n(-c2ccc(Cl)cc2Cl)n1,–,–,95.21,86.73,68.99,–
Cc1ccc(-n2nc(-c3ccc(C(F)(F)F)cc3O)nc2-c2ccccc2O)c(C)c1,94.8,230,106.25,93.31,73.72,–
Oc1cc(C(F)(F)F)ccc1-c1nc(-c2ccccc2O)n(-c2cccc(F)c2)n1,–,–,98.25,87.66,67.24,–
